Source: patent US12029715B2, “Precursor compounds for providing retinoids of the vitamin A5 pathway and uses thereof” (UNIVERSITY OF DEBRECEN, priority 2015, dated 2024)
Entries after “also recorded” stand apart in the source; their conditions may differ.

Assays:
[1] = system: human oligodendrocytes cell cultures; assay: Metabolic conversion in human oligodendrocytes cell culture (HPLC-MS); type: in vitro ADME; details: 10^−6M; for 9CDHRA levels in cells after treatment (metabolism / accumulation): n=3
Protocol: (§1) In a slight variant of the method, after reaching confluency of 80% cells were treated with 9CDHROL, 9CDH-retinyl ester (acetate, 9CDHROL-ES), 9CDHRA, 9CDH-retinoyl ester, (ethyl ester, 9CDHRA-ES), ATROL, 9CDHBC, 9CBC and ATBC at a concentration of 10^−6 M or ethanol at corresponding concentration was used as control vehicle treatment. Cells were harvested 18 hours later, centrifuged, weighted, frozen in liquid nitrogen and stored at −80° C. until analyses.
(§2) High performance liquid chromatography mass spectrometry (LC-MS) was carried out as described in Example 4.
9CDHRA levels including standard deviation in human oligodendrocytes cultures were assessed using HPLC-MS analysis after control treatment using ethanol (CTRL), as well as ATROL treatment (ATROL), 9CBC treatments (9CBC), ATBC treatments (ATBC), 9CDHBC treatment (9CDHBC), 9CDHROL treatments (9CDHROL), 9CDHROL-ester treatments (9CDHROL-ES), 9CDHRA treatments (9CDHRA) or 9CDHRA-ester treatments (9CDHRA-ES), each with 10^−6M concentration and n=3 (FIG. 14D).

[2] = system: oligodendrocytes cell line 158N; assay: Metabolic conversion in mouse oligodendrocytes cell culture (LC-MS); type: in vitro ADME; details: for 9CDHRA levels in cells after treatment: 10^−5M for 18 h; for 9CDHROL levels in cells after treatment: 10^−6 M, 18 hours; for conversion to 9CDHRA: data not shown; for 9CBC in cells after treatment: 411 nm detection, retention time 26.1 min; for 9CDHBC peak in cells after treatment: UV detection at 366 nm, retention time 25.1 min
Protocol: Normal immortalized oligodendrocytes cell line 158N was cultured as previously reported (Feutz et al., 2001). Expediently, cells were cultured in supplemented with 5% calf serum (Invitrogen, France). When cells attained 70% of confluency they were treated with 10^−2 M ethanol solution of one of the following compounds: 9CDHROL, 9CDHROL-acetate, 9CDHRA-ethyl ester. 9CDHRA and ethanol as controls, vehicle treatment. 18 h after treatment cells were collected in amber Eppendorf tubes and stored at −80° C. until analyses. Treatments and cell collection were carried out in light limited conditions to avoid photolysis of retinoids.
as §1, §2

[3] = system: differentiating monocyte-derived human dendritic cells; assay: DNA microarray in differentiating monocyte-derived dendritic cells; type: cell-based; details: for expression of genes that are direct targets of RXR permissive heterodimers (LXR-RXR, PPAR-RXR) and RAR-RXR: 9CDHRA 10 μM, 9CRA 1 μM, GW3965 1 μM, RSG 1 μM, GW1516 1 μM, AM580 100 nM
Protocol: The generation and transcriptional analysis of differentiating DCs were performed as described previously [Szeles L et al. 2010]. Microarray data were deposited into the Gene Expression Omnibus database under accession no. GSE48573.
The generation and analysis of differentiating DCs were performed as described previously [Szeles L et al. 2010] with minor modifications. Briefly, human monocytes were isolated from healthy volunteer's buffy coat, obtained with a Regional Ethical Board permit from the Regional Blood Bank and isolated by Ficoll gradient centrifugation followed by immunomagnetic cell separation, and were cultured in the presence of GM-CSF and IL-4. Differentiating DCs were stimulated 18 h after […] by various agonists for 12 h. The ligands were used in the following concentrations: 10 μM (R)-9CDHRA, 10 μM (S)-9CDHRA, 1 μM 9cisRA, 100 nM LG100268, 1 μM GW3965, 1 μM Rosiglitazone (RSG), 1 μM GW1516, 100 nM AM580. Experiments were performed in biological triplicates. Samples were processed and hybridized to Human Genome U133 Plus 2.0 Arrays. Data were analysed using to GeneSpring 12.6.1 software. In detail, normalization was performed using RMA summarization algorithm. […] Microarray data were deposited into the Gene Expression Omnibus database under accession no. GSE48573.

[4] = system: Rbp1−/− and Rxrγ−/− mice; assay: Y-maze spontaneous alternation; type: in vivo, mouse; details: 5-6 hours prior to testing
Protocol: The Y-maze apparatus and the procedure were as previously described (Wietrzych et al., 2005). Briefly, each mouse was placed at the end of one arm and allowed to explore freely the apparatus for 5 min, with the experimenter out of the animal's sight. Spontaneous alternation performance (SAP) was assessed visually by scoring the pattern of entries into each arm and expressed as a percentage of total number of entries, discounting the first two visits. Total entries were scored as an index of ambulatory activity in the Y-maze, but none of tested mice had to be excluded due to low locomotor performance (score below 9 entries).
(§3) Vehicle treatments consisted of 3% ethanol and 3% DMSO solution in sunflower oil. Treatments were administered by intraperitoneal injections at volume/weight ratio 3 ml/kg between 8-10 am and 5-6 h before the test as previously validated (Wietrzych-Schindler M, 2011).

[5] = system: Rbp1−/−, Rxrγ−/− and WT mice; assay: Forced swim test after acute treatment; type: in vivo, mouse; details: Rbp1−/− mice, acute i.p. treatment 5-6 h before the test
Protocol: (§4) The forced swim paradigm was carried out between 1 pm and 4 pm in a 3-litre glass beaker half-filled with water at 22-23° C. (the water depth was 17 cm). All mice were tested only once in this task. To this end, each mouse was lowered gently into the water and the time of immobility was scored during a 6-minute testing period. The mouse was judged immobile when it floated in an upright position and made only small movements to keep its head above the water. After 6 min, the mouse was taken out of the water, left to dry under a red light lamp and returned to its home cage. The immobility scores of each animal were used as an index of despair behavior.
as §3
as §4, with “paradigm (Dalvi and Lucki, 1999)” for “paradigm”, “2-litre” for “3-litre”

[6] = Rbp1−/− mice, ATRA 5 mg/kg, UVI2108 1 mg/kg, MA 5 mg/kg, DHA 1 mg/kg, TTNPB 5 mg/kg

## CC(=O)OCC[C@@H](C)/C=C/C=C(C)\C=C\C1=C(C)CCCC1(C)C (stereo in doubt) [9CDHROL-ES, (R)-9-cis-13,14-dihydroretinyl acetate]
[1]
  production of 9CDHRA by the ester form compared with 9CDHROL and 9CDHRA, respectively: higher production
[2]
  9CDHRA levels in cells after treatment: strong increase
  9CDHROL levels in cells after treatment: excellent/strongly
  conversion to 9CDHRA: excellent precursor

## CC1=C(/C=C/C(C)=C\C=C\C(C)=C\C=C\C=C(C)\C=C\C=C(C)\C=C\C2=C(C)CCCC2(C)C)C(C)(C)CCC1 [9CBC, 9-cis-β,β-Carotene]
[1]
  9CDHRA levels in cells after treatment (metabolism / accumulation): not converted to 9CDHRA
[2]; 10^−6M
  ATROL levels in cells after treatment: a low conversion or induced increase
[2]
  9CDHROL levels in cells after treatment: no or just a weak increase; also recorded: weak significant increase
  9CBC in cells after treatment: could detect 9CBC
  9CDHBC peak in cells after treatment: higher peak was observed
  conversion to 9CDHRA: not converted to 9CDHRA

## CCOC(=O)C[C@@H](C)/C=C/C=C(C)\C=C\C1=C(C)CCCC1(C)C [9CDHRA-ES, Ethyl (9Z,13R)-13,14-Dihydroretinoate]
[1]
  production of 9CDHRA by the ester form compared with 9CDHROL and 9CDHRA, respectively: higher production
  9CDHRA levels in cells after treatment (metabolism / accumulation): strong accumulation
[2]
  9CDHRA levels in cells after treatment: very strong increase

## CC1=C(/C=C/C(C)=C\C=C\C(C)=C\C(=O)O)C(C)(C)CCC1 [9CRA, 9-cis-retinoic acid, reference compound]
[3]
  expression of genes induced by AM580 (RAR-RXR target genes): also induced
[3]; 10 μM (R)-9CDHRA, 1 μM 9CRA, 12 h, FC>2
  number of transcripts regulated: 450
[3]; LG268 100 nM
  expression of genes that are direct targets of RXR permissive heterodimers (LXR-RXR, PPAR-RXR) and RAR-RXR: induce the expression of many genes

## CC1(C)CCC(C)(C)c2cc(C(=O)Nc3ccc(C(=O)O)cc3)ccc21 [AM580, reference compound]
[3]; LG268 100 nM
  expression of genes that are direct targets of RXR permissive heterodimers (LXR-RXR, PPAR-RXR) and RAR-RXR: also induced

## CC1=C(/C=C/C(C)=C/C=C/C(C)=C/C=C/C=C(C)/C=C/C=C(C)/C=C/C2=C(C)CCCC2(C)C)C(C)(C)CCC1 [ATBC, all-trans-β,β-carotene, reference compound]
[1]
  9CDHRA levels in cells after treatment (metabolism / accumulation): not converted to 9CDHRA
[2]
  9CDHROL levels in cells after treatment: did not display any increase; also recorded: did not result in any increase
  9CBC in cells after treatment: no 9CBC could be detected
  9CDHBC peak in cells after treatment: not be conclusively detected
  conversion to 9CDHRA: not converted to 9CDHRA
[2]; detectable at 411 nm, eluting at 27.2 min
  ATBC level in cells after ATBC-treatment: present in very high levels

## Cc1cc(SCc2sc(-c3ccc(C(F)(F)F)cc3)nc2C)ccc1OCC(=O)O [GW1516, reference compound]
[3]; LG268 100 nM
  expression of genes that are direct targets of RXR permissive heterodimers (LXR-RXR, PPAR-RXR) and RAR-RXR: also induced

## O=C(O)Cc1cccc(OCCCN(Cc2cccc(C(F)(F)F)c2Cl)CC(c2ccccc2)c2ccccc2)c1 [GW3965, reference compound]
[3]; LG268 100 nM
  expression of genes that are direct targets of RXR permissive heterodimers (LXR-RXR, PPAR-RXR) and RAR-RXR: also induced

## Cc1cc2c(cc1C1(c3ccc(C(=O)O)cn3)CC1)C(C)(C)CCC2(C)C [LG268, reference compound]
[3]; LG268 100 nM
  expression of genes that are direct targets of RXR permissive heterodimers (LXR-RXR, PPAR-RXR) and RAR-RXR: induce the expression of many genes
  transcripts of the set common to (R)-9CDHRA and 9CRA also regulated by LG268: 61

## C/C(=C\c1ccc(C(=O)O)cc1)c1ccc2c(c1)C(C)(C)CCC2(C)C [TTNPB]
[4]; [6]
  working memory in spontaneous alternation in the Y-maze: not
[5]
  immobility (despair) in the forced swim test: did not display such effects

## COC(C)(C)CCCC(C)C/C=C/C(C)=C/C(=O)O (stereo not shown) [methoprene acid]
[4]; [6]
  working memory in spontaneous alternation in the Y-maze: pro-mnemonic effects
[4]; Rbp1−/− mice, ATRA 5 mg/kg, UVI2108 1 mg/kg, MA 5 mg/kg, DHA 1 mg/kg, TTNPB 5 mg/kg, listed as MA
  working memory in spontaneous alternation in the Y-maze: normalised
[4]; Rxrγ−/− mice, same doses
  working memory in spontaneous alternation in the Y-maze: not
[5]
  immobility (despair) in the forced swim test: normalized increased despair
[5]; listed as MA
  immobility (despair) in the forced swim test: normalised
